Measured values published in patent US4559325A, “Purified antineoplaston fractions and methods of treating neoplastic disease” (priority 1984, dated 1985).
Counter-ions that a name gives are not always drawn.

Assays:
[1] = Acute toxicity studies in mice; conditions: mouse, in vivo, ip
Description: After a week, a select number of the mice were sacrificed.
Acute toxicity studies involving antineoplaston fractions A2-A5, antineoplaston A10 and degradation products were carried out in the same manner described above.

Rd/3 sarcoma = conditions: rats, cited from earlier work

Row | Structure (SMILES) | LD50 [1] | enhancement of tumor growth (Rd/3 sarcoma; Rd/3 sarcoma) | effect on tumor growth, Rd/3 sarcoma (Rd/3 sarcoma; inhibition)
1 | O=C1CCC(NC(=O)Cc2ccccc2)C(=O)N1 (stereo not drawn) [Antineoplaston A10, 3-[N-phenylacetylaminopiperidine]-2,6-dion] | 10300 mg/kg |  | 
2 | O=C(O)Cc1ccccc1 [sodium salt of phenylacetic acid] |  | some enhancement of tumor growth | failed to inhibit tumor growth
